Target: human orexin type 2 receptor (hOX2R) (Homo sapiens (Human), UniProt O43614)
Test: Measurement of orexin type 2 receptor agonist activity (Experimental Example 2-1, FLIPR TETRA, intracellular Ca2+)
Type: cell-based
Conditions: CHO dhfr- cells expressing hOX2R; for Emax at 30 µM: value at 30 uM concentration, orexin B as full agonist = 100%; for Emax: read-out: Emax (%)
[1] = agonist activity, 10 nM human orexin B = 100%

Chain of human orexin type 2 receptor (hOX2R) (O43614 whole entry): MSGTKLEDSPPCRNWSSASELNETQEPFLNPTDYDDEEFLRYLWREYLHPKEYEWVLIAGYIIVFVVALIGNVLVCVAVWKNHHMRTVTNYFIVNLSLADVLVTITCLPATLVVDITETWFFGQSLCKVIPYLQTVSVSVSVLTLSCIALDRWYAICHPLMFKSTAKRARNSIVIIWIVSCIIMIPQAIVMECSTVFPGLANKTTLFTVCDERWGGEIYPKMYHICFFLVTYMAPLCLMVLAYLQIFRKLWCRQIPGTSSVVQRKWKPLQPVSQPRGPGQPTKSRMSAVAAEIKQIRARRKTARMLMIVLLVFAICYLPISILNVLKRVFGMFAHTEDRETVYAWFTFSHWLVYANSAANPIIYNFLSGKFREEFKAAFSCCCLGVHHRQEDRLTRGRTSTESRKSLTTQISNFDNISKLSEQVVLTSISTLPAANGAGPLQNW

EC50 [1] [nM] | Emax at 30 µM [%] | EC50 (FLIPR TETRA, Fluo-4AM) [nM] | Emax (FLIPR TETRA, Fluo-4AM) [%] | Emax (%) (FLIPR TETRA, Fluo-4AM) | Compound
250 | 100 |  |  |  | CS(=O)(=O)N[C@H]1CCCN[C@H]1CO[C@H]1CC[C@@H](c2cc(F)cc(F)c2)CC1 [Example 7, N-((2R,3S)-2-(((cis-4-(3,5-difluorophenyl)cyclohexyl)oxy)methyl)piperidin-3-yl)methanesulfonamide]
 |  | 2500 | 94 |  | CS(=O)(=O)N[C@H]1CCCN[C@H]1CO[C@H]1CC[C@@H](c2ccccc2C#N)CC1 (relative stereo) [Example 262, N-(cis-2-(((cis-4-(2-cyanophenyl)cyclohexyl)oxy)methyl)piperidin-3-yl)methanesulfonamide]
 |  | 3.4 | 94 |  | COC(=O)N1CCC[C@H](NS(C)(=O)=O)[C@@H]1CO[C@H]1CC[C@@H](c2ccccc2F)CC1 [Example 267, methyl (2R,3S)-2-(((cis-4-(2-fluorophenyl)cyclohexyl)oxy)methyl)-3-((methylsulfonyl)amino)piperidine-1-carboxylate]
 |  | 23 | 97 |  | C[C@H](O)C(=O)N1CCC[C@H](NS(C)(=O)=O)[C@@H]1CO[C@H]1CC[C@@H](c2ccccc2)CC1 [Example 188, N-((2R,3S)-1-((2S)-2-hydroxypropanoyl)-2-(((cis-4-phenylcyclohexyl)oxy)methyl)piperidin-3-yl)methanesulfonamide]
 | 100 |  |  |  | COC(=O)N1CCC[C@H](NS(C)(=O)=O)[C@@H]1CO[C@H]1CC[C@@H](c2cccc(F)c2F)CC1 [Example 20, methyl (2R,3S)-2-(((cis-4-(2,3-difluorophenyl)cyclohexyl)oxy)methyl)-3-((methylsulfonyl)amino)piperidine-1-carboxylate]
 |  | 2600 | 86 |  | CS(=O)(=O)N[C@H]1CCCN(C(=O)C2CC2)[C@H]1COC1CCC(F)(c2cc(F)cc(F)c2)CC1 (relative stereo) [Example 327, N-(cis-1-(cyclopropylcarbonyl)-2-(((4-(3,5-difluorophenyl)-4-fluorocyclohexyl)oxy)methyl)-piperidin-3-yl)methanesulfonamide]
 |  | 490 | 83 |  | COC(=O)N1CCC[C@H](NS(C)(=O)=O)[C@@H]1COC1CCC(c2ccccc2)C1 (relative stereo) [Example 338, methyl cis-3-((methylsulfonyl)amino)-2-(((3-phenylcyclopentyl)oxy)methyl)-piperidine-1-carboxylate]
 |  | 1000 | 97 |  | CN(C)CC(=O)N1CCC[C@H](NS(C)(=O)=O)[C@@H]1CO[C@H]1CC[C@@H](c2ccccc2)CC1 (relative stereo) [Example 133, N-(cis-1-(N,N-dimethylglycyl)-2-(((cis-4-phenylcyclohexyl)oxy)methyl)piperidin-3-yl)methanesulfonamide]
 |  | 80 | 102 |  | COC(=O)N1CCC[C@H](NS(C)(=O)=O)[C@@H]1CO[C@H]1CC[C@@H](c2cccc(OC)c2)CC1 (relative stereo) [Example 270, methyl cis-2-(((cis-4-(3-methoxyphenyl)cyclohexyl)oxy)methyl)-3-((methylsulfonyl)amino)piperidine-1-carboxylate]
 |  | 1100 | 99 |  | Cc1ccccc1[C@H]1CC[C@@H](OC[C@@H]2NCCC[C@@H]2NS(C)(=O)=O)CC1 [Example 318, N-((2R,3S)-2-(((cis-4-(2-methylphenyl)cyclohexyl)oxy)-methyl)piperidin-3-yl)methanesulfonamide]
 |  |  | 96 |  | CS(=O)(=O)N[C@H]1CCCN(S(C)(=O)=O)[C@H]1CO[C@H]1CC[C@@H](c2ccccc2)CC1 (relative stereo) [Example 152, N-(cis-1-(methylsulfonyl)-2-(((cis-4-phenylcyclohexyl)oxy)methyl)piperidin-3-yl)methanesulfonamide]
 |  | 15 | 102 |  | CCOC(=O)N1CCC[C@H](NS(C)(=O)=O)[C@@H]1CO[C@H]1CC[C@@H](c2ccccc2)CC1 [Example 303, ethyl (2R,3S)-3-((methylsulfonyl)amino)-2-(((cis-4-phenylcyclohexyl)oxy)methyl)-piperidine-1-carboxylate]
 |  | 260 | 95 |  | CC1(OC(=O)N2CCC[C@H](NS(C)(=O)=O)[C@@H]2COC2CCN(c3ncccn3)CC2)CC1 (relative stereo) [Example 284, 1-methylcyclopropyl cis-3-((methylsulfonyl)amino)-2-(((1-(pyrimidin-2-yl)piperidin-4-yl)oxy)methyl)piperidine-1-carboxylate]
1300 | 96 |  |  |  | CC(C)[C@H]1CC[C@@H](OC[C@H]2[C@@H](NS(C)(=O)=O)CCCN2C(=O)COc2ccccc2)CC1 (relative stereo) [Example 44, N-(cis-2-(((cis-4-isopropylcyclohexyl)oxy)methyl)-1-(phenoxyacetyl)piperidin-3-yl)methanesulfonamide]
 | 74 |  |  |  | CC(C)[C@H]1CC[C@@H](OC[C@H]2[C@@H](NS(C)(=O)=O)CCCN2S(C)(=O)=O)CC1 (relative stereo) [Example 36, N-(cis-2-(((cis-4-isopropylcyclohexyl)oxy)methyl)-1-(methylsulfonyl)piperidin-3-yl)methanesulfonamide]
 |  |  |  | 71 | COC(=O)N1CCC[C@H](NS(C)(=O)=O)[C@@H]1CO[C@H]1CC[C@@H](c2ccccc2C(F)F)CC1 (relative stereo) [Example 322, methyl cis-2-(((cis-4-(2-(difluoromethyl)phenyl)cyclohexyl)-oxy)methyl)-3-((methylsulfonyl)amino)piperidine-1-carboxylate]
 |  | 3700 | 95 |  | CCNC(=O)N1CCC[C@H](NS(C)(=O)=O)[C@@H]1CO[C@H]1C[C@@H](Cc2ccccc2)C1 (relative stereo) [Example 266, cis-2-(((cis-3-benzylcyclobutyl)oxy)methyl)-N-ethyl-3-((methylsulfonyl)amino)piperidine-1-carboxamide]
 |  | 5000 | 83 |  | CS(=O)(=O)N[C@H]1CCCN(C(=O)C2CC(=O)C2)[C@H]1COC1CCN(c2ccccc2F)CC1 (relative stereo) [Example 233, N-(cis-2-(((1-(2-fluorophenyl)piperidin-4-yl)oxy)methyl)-1-((3-oxocyclobutyl)carbonyl)piperidin-3-yl)methanesulfonamide]
0.84 | 99 |  |  |  | CS(=O)(=O)N[C@H]1CCCN(C(=O)C2CC2)[C@H]1CO[C@H]1CC[C@@H](c2cccc(F)c2)CC1 [Example 16, N-((2R,3S)-1-(cyclopropylcarbonyl)-2-(((cis-4-(3-fluorophenyl)cyclohexyl)oxy)methyl)piperidin-3-yl)methanesulfonamide]
4.6 | 105 |  |  |  | CCNC(=O)N1CCC[C@H](NS(C)(=O)=O)[C@@H]1COC1CCN(c2ncccn2)CC1 (relative stereo) [Example 118, cis-N-ethyl-3-((methylsulfonyl)amino)-2-(((1-(pyrimidin-2-yl)piperidin-4-yl)oxy)methyl)piperidine-1-carboxamide]
 | 107 |  |  |  | CC(C)[C@H]1CC[C@@H](OC[C@H]2[C@@H](NS(C)(=O)=O)CCCN2C(=O)NCC(F)(F)F)CC1 (relative stereo) [Example 98, cis-2-(((cis-4-isopropylcyclohexyl)oxy)methyl)-3-((methylsulfonyl)amino)-N-(2,2,2-trifluoroethyl)piperidine-1-carboxamide]

— patent publication US10287305B2, “Substituted piperidine compound and use thereof” (Takeda Pharmaceutical Company Limited, priority 2016, dated 2019)
